Here are results for 50 molecules from the OPERA property sets (Mansouri et al. 2018).

Settings in the first series: not given
As for `COP(=S)(OC)SCn1nnc2ccccc2c1=O`, the log10 Koc (L/kg) stood at 2.28; the log10 vapour pressure (mmHg) was -5.8; the melting point (commonly the temperature, or range, at which the solid turns liquid) is 73 °C; the ready biodegradability result was “readily biodegradable”.

Turning to `COc1cc(OC)cc(C(=O)O)c1`, the log10 vapour pressure (mmHg) is -6.86 and the melting point was 186 °C.

With `S=c1[nH]c2ccccc2[nH]1`, the melting point came out at 298 °C and the ready biodegradability entry is “not readily biodegradable”.

`CCCCCCCCCCCCCCCCCC(=O)OCC(O)CO` (stereo unspecified): the melting point was determined as 74 °C and the ready biodegradability entry is recorded as “readily biodegradable”.

In turn, `Oc1ccc(Cl)c2cccnc12` gave a melting point of 130 °C.

For `COCCC#N`, the boiling point – broadly, the temperature of boiling at a given pressure – amounted to 163 °C.

The molecule `CN(C)c1cccc2c(S(N)(=O)=O)cccc12` returned a melting point of 220 °C.

Regarding `CCCCCCCCCCCCCCCC(=O)OC[C@H](O)[C@H]1OC(=O)C(O)=C1O`, the melting point amounted to 116 °C.

`Fc1ccc(F)cc1` yielded a boiling point of 89 °C, a log10 vapour pressure (mmHg) of 1.81 and a melting point of -13 °C.

`CC(=O)OC1CCC(C(C)(C)C)CC1` (stereo unspecified): the log10 vapour pressure (mmHg) is -2.12 and the melting point is -50 °C.

`C[C@]12COC(=O)C[C@@H]1CC[C@@H]1[C@@H]2CC[C@@]2(C)[C@H]1CC[C@]2(C)O` showed a melting point of 236 °C.

With `c1ccc2c(c1)Cc1ccccc1N2`, the boiling point was found to be 347 °C.

Regarding `C=C(C)C(=O)OCCN(C)C`, the boiling point was determined as 186 °C and the melting point is -30 °C.

`O=COCc1ccccc1` yielded a boiling point of 203 °C.

In the case of `CCC/C=C/COC(C)=O`, the boiling point is 166 °C.

As for `C1CC2OC2CC1C1CO1` (stereo unspecified), the boiling point came out at 227 °C and the ready biodegradability result is “not readily biodegradable”.

On to `CN1CC[C@]23c4c5ccc(OCc6ccccc6)c4O[C@H]2[C@@H](O)C=C[C@H]3[C@H]1C5`, for which the melting point was 132 °C.

In turn, `CC[C@@H]1C(=O)OC[C@@H]1Cc1cncn1C.Cl` had a melting point of 204 °C.

Consider `CCCCCCC(=O)c1ccccc1`, for which the boiling point was 283 °C and the melting point amounted to 16.4 °C.

Molecule `O=C(CCCN1CCN(c2ccccn2)CC1)c1ccc(F)cc1` registered a melting point of 74 °C.

Consider `CC(CC(C)(C)C)CC(C)(C)CC(C)(C)C` (stereo unspecified), for which the ready biodegradability entry is “not readily biodegradable”.

The molecule `CC(C)(C)OCC1CO1` (stereo unspecified) showed a boiling point of 152 °C and a melting point of -70 °C.

Take `O=C1c2ccccc2C(=O)C1c1nc2ccccc2c(Br)c1O`: the ready biodegradability entry was “not readily biodegradable”.

For the molecule `O=C(O)c1ccc(C(=O)O)nc1`, the melting point was 254 °C and the ready biodegradability entry is on record as “not readily biodegradable”.

As to `CC(C)OC(=O)C(Cl)(Cl)Cl`, the boiling point was found to be 175 °C.

Take `COc1cc(O)c(C(C)=O)c(OC)c1`: the melting point worked out at 82 °C.

`Cc1cocn1` displayed a boiling point of 88 °C.

The molecule `O=C1CCCCCCCCCCCCCCO1` registered a melting point of 32 °C.

In turn, `CC[C@H]1CN2CCc3cc(OC)c(OC)cc3[C@@H]2C[C@@H]1C[C@H]1NCCc2cc(OC)c(OC)cc21` yielded a melting point of 74 °C.

In turn, `CN(C)CC(O)CN(C)C` had a boiling point of 182 °C.

For `Clc1ccc(CSC(Cn2cncn2)=Nc2ccc(Cl)cc2Cl)cc1`, the log10 vapour pressure (mmHg) was -9.2 and the melting point was determined as 90 °C.

Molecule `Fc1cccnc1` showed a boiling point of 108 °C.

`CCOC(=O)COC` had a boiling point of 142 °C.

Turning to `CC(=O)c1ccccc1C`, the boiling point stood at 214 °C.

As to `CCCCCCCCCCCCCCCC(C)O` (stereo unspecified), the melting point turned out to be 54 °C.

`C1=CCc2ccccc2C1` registered a boiling point of 212 °C and a melting point of 25 °C.

For the molecule `COCCOCCOCCO`, the boiling point was determined as 249 °C, the melting point is -44 °C and the ready biodegradability entry is recorded as “readily biodegradable”.

Turning to `Brc1ccc(Br)cc1`, the boiling point was determined as 218 °C, the log10 Koa amounted to 5.21, the log10 vapour pressure (mmHg) is -1.24 and the melting point came out at 87.3 °C. In addition, the ready biodegradability entry is listed as “not readily biodegradable”.

The molecule `CCC(C)CCC(C)CC` (stereo unspecified) yielded a boiling point of 161 °C.

As for `OCC1OC(O)C(O)C(O)C1O` (stereo unspecified), the ready biodegradability entry is listed as “readily biodegradable”.

As for `[O-][n+]1onc2ccccc21`, the melting point was 70 °C.

The molecule `CC(=O)[C@@]12O[C@](C)(c3ccccc3)O[C@@H]1C[C@H]1[C@@H]3CCC4=CC(=O)CC[C@]4(C)[C@H]3CC[C@@]12C` registered a melting point of 150 °C.

`CCCc1ccccc1N` showed a boiling point of 226 °C.

As to `CCCCC/C=C\C/C=C\CCCCCCCC(=O)OC`, the log10 vapour pressure (mmHg) is -5.44 and the melting point is -35 °C.

Consider `Brc1c(Br)c(Br)c(Oc2c(Br)c(Br)c(Br)c(Br)c2Br)c(Br)c1Br`, for which the boiling point worked out at 530 °C, the melting point is 295 °C and the ready biodegradability entry is reported as “not readily biodegradable”.

Consider `O=C1c2ccccc2C(=O)c2c1ccc1ccccc21`, for which the melting point came out at 170 °C and the ready biodegradability entry was “not readily biodegradable”.

Staying with this series, now noted: fish.
Take `COc1ccc(N)c([N+](=O)[O-])c1`: the log10 BCF was found to be 0.85 and the log10 biotransformation half-life (days) was -0.87.

For the molecule `Clc1ccc(-c2cc(Cl)c(Cl)c(Cl)c2Cl)c(Cl)c1`, the log10 biotransformation half-life (days) turned out to be 2.34.

The molecule `Clc1cc(Cl)c(Cl)c(-c2cccc(Cl)c2Cl)c1` came in with a log10 biotransformation half-life (days) of 2.44.

Molecule `c1ccccc1` displayed a log10 BCF of 0.63.

The molecule `CC(CC(C)(C)C)CC(C)(C)CC(C)(C)C` (stereo unspecified) returned a log10 BCF of 3.82 and a log10 biotransformation half-life (days) of 1.81.

Regarding `O=C1c2ccccc2C(=O)C1c1nc2ccccc2c(Br)c1O`, the log10 BCF was determined as 1.14.

Molecule `O=C(O)c1ccc(C(=O)O)nc1` came in with a log10 BCF of 0.76.

`Brc1ccc(Br)cc1` yielded a log10 BCF of 2.21 and a log10 biotransformation half-life (days) of 0.31.

For `Brc1c(Br)c(Br)c(Oc2c(Br)c(Br)c(Br)c(Br)c2Br)c(Br)c1Br`, the log10 biotransformation half-life (days) is 1.16.

In turn, `O=C1c2ccccc2C(=O)c2c1ccc1ccccc21` had a log10 BCF of 1.69 and a log10 biotransformation half-life (days) of -0.84.
